# “And” between values parts separate entries of the source, which are not always exact repeats. Equal values may be shown once.
# Tests used:
# [1] = Pharmacokinetics and brain distribution after multiple-dose s.c. administration; assay type: in vivo, p21 naïve male C57Bl/6J mice
# Experimental: Dosing route and concentration were similar to what we proposed to do for treatment for the current study. Terminal blood samples were collected in heparinized tubes through the posterior vena cava and centrifuged to obtain plasma (n = 3 per time point). Whole brain samples were harvested after transcardial perfusion with saline, immediately flash frozen in liquid nitrogen, and stored at -80°C until analysis.
# [2] = Body weight after surgery at p21; assay type: in vivo, male C57Bl/6J mice; settings: 25 mg/kg s.c. at 2, 4, 24, 48 h post-injury or sham-operation
# Experimental: (§1) The controlled cortical impact model of TBI was used as previously described. TBI to the p21 mouse approximates a toddler-aged child, based upon the structural, biochemical and behavioral characteristics of this age. Pups were anaesthetized with 1.25% 2,2,2-tribromoethanol (Avertin; Sigma-Aldrich, St. Louis, MO) in isotonic saline (i.p. bolus at 0.02 mL/g body weight). After craniotomy, mice were subjected to a controlled cortical impact at 4.5 m/s velocity and 1.73 mm depth of penetration, for a sustained depression of 150 ms, using a 3.0 mm convex impactor tip. Mice were maintained on a water-circulating heating pad throughout surgery and recovery. Following impact, the scalp was closed with sutures and each animal administered 0.5 ml of isotonic saline subcutaneously (s.c.) to prevent post-operative dehydration. Sham-operated mice underwent identical surgical procedures, including craniotomy, without receiving the cortical impact. All mice were closely monitored for 1–2 hours post-surgery until return of the righting reflex and full mobilization. Mice were then returned to group-housing, and weighed post-surgery at days 1, 3, and weekly thereafter till the end of the study.
# [3] = tested on: MMP-2; test: Inhibition constant for MMP-2; assay type: biochemical; settings: more potent than the parent compound
# [4] = tested on: MMP-9; test: Inhibition constant for MMP-9; assay type: biochemical; settings: more potent than the parent compound
# [5] = tested on: controlled cortical impact TBI at p21; test: Stereological volumes and hippocampal cell counts at adulthood after TBI at p21; assay type: in vivo, male C57Bl/6J mice; settings: ~2 months post-injury
# Experimental: as §1
# The treatment regime was based upon several considerations. […] Thirdly, we limited treatment to a period of 48 h post-injury in order to minimize potential off-target effects on ongoing brain development processes at this time, given the known roles that these gelatinases play in postnatal synaptic maturation. For acute studies (gelatin zymography and histology) animals were euthanized at 4 hours and for in situ zymography, they were euthanized 1 hour after the last injection. For long-term studies (behavioral and cognitive assessments and histology) animals were euthanized at ~2 months post-injury. Euthanasia was by overdose with 2.5% Avertin i.p. followed by decapitation or cardiac transperfusion as described below.
# Upon completion of behavioral and cognitive assessments at ~ 2 months post-injury, anesthetized mice were perfused transcardially with ice-cold saline followed by 4% paraformaldehyde in 0.1M PBS. Collected brains were post-fixed overnight in 4% PFA and then transferred into a 30% sucrose solution for 72 h before being embedded in Neg50^TM (Richard-Allan Scientific, Thermo Fisher Scientific, Fremont, CA). Serial coronal sections spanning the entire cortex were cut at 20 μm or 40 μm (for time points of 48 h or 2 months post-injury, respectively).
# An estimation of intact cortical and hippocampal volumes was performed on 40 μm coronal sections stained with cresyl violet, collected at ~ 2 months post-injury. The unbiased Cavalieri method was performed with StereoInvestigator software (MicroBrightField v10.21.1, Williston, VT, USA), using a Nikon E600W microscope configured with a motorized stage, MAC 5000 controller and Retiga 2000R color digital camera (QImaging, Surrey, BC, Canada). Spanning Bregma 1.5 to -3.8 mm, 12–16 sections containing cortex and 7–10 sections containing hippocampus were assessed per brain, using a sampling interval of 8 and a grid size of either 200 μm or 75 μm for cortex and hippocampus, respectively. Measurements were confined to the dorsal hemispheres as previously described using a 2x objective for the cortex and 4x for the hippocampus. The Gundersen mean coefficient of error (m = 1) was maintained ≤0.03 for cortical volume estimates and ≤0.08 for the hippocampus and dentate gyrus (DG). Group means are expressed as estimated volume (mm³). Certain sections were excluded from stereological analyses due to poor tissue integrity, folding or incomplete staining. In these cases, the section was deemed to be ‘missing’ and estimation for this section was calculated from the StereoInvestigator program based upon the adjacent sections. This was permitted for a maximum of 2 non-adjacent sections per brain. […]
# [6] = tested on: TBI in adult mice; settings: equivalent dose; cited from earlier work
# [7] = molecular target: MMP-2; settings: cited from earlier work
# [8] = tested on: controlled cortical impact TBI at p21; test: Resident-intruder test at adulthood after TBI at p21; assay type: in vivo, male C57Bl/6J mice; settings: 25 mg/kg s.c. at 2, 4, 24, 48 h post-injury; tested at adulthood
# Experimental: as §1, with “Mice were then returned to group-housing, and weighed post-surgery at days 1, 3, and weekly thereafter till the end of the study.” left out
# To assess social investigative behaviors, a novel stimulus mouse (matched for strain, age and sex) was presented into the established home cage of the test mouse, and investigative behaviors were quantified from video recordings as previously described.
# [9] = 25 mg/kg s.c. at 0, 2 and 24 h, p21 mice
# [10] = 0.5 h after final dose, 25 mg/kg s.c. at 0, 2 and 24 h, p21 mice
# [11] = 1 h after final dose, 25 mg/kg s.c. at 0, 2 and 24 h, p21 mice
# [12] = 2 h after final dose, 25 mg/kg s.c. at 0, 2 and 24 h, p21 mice
structure (smiles),measurement,setting,value
O=S(=O)(CC1CS1)c1ccc(Oc2ccc(O)cc2)cc1 (stereo not shown) [p-OH SB-3CT],"AUC 0-last, brain",[1]; [9],189 pmol·min/mg
same,"AUC 0-last, plasma",[1]; [9],273 µM·min
same,"AUC 0-∞, brain",[1]; [9],191 pmol·min/mg
same,"AUC 0-∞, plasma",[1]; [9],276 µM·min
same,Brain AUC /Plasma AUC,[1]; [9],0.693
same,Brain concentration,[1]; [10],4.67 ± 1.60 pmol/mg tissue
same,Plasma concentration,[1]; [10],6490 ± 4490 nM
same,peak brain level expressed as concentration,"[1]; 30 min after final dose, assuming a density of 1 g/mL",4.67 µM
same,Brain concentration,[1]; [11],0.905 ± 1.09 pmol/mg tissue
same,Plasma concentration,[1]; [11],1660 ± 1820 nM
same,Brain concentration,[1]; [12],0.0772 ± 0.0211 pmol/mg tissue
same,Plasma concentration,[1]; [12],122 ± 76.2 nM
same,Brain concentration,"[1]; 4 h after final dose, 25 mg/kg s.c. at 0, 2 and 24 h, p21 mice, 25 mg/kg",0.0209 ± 0.0058 pmol/mg tissue and 0.0209 ± 0.00578 pmol/mg tissue
same,time to peak concentration in brain,"[1]; s.c., after the final dose",30 min
same,time to peak concentration in plasma,"[1]; s.c., after the final dose",30 min
same,animal weight over development,[2],no differences between treatment or injury groups
same,potency at inhibiting MMP-2 relative to parent compound SB-3CT,[3],5 fold
same,potency at inhibiting MMP-9 relative to parent compound SB-3CT,[4],2.5 fold
same,contralateral cortical volume,[5]; TBI groups or sham groups compared,did not alter contralateral cortical volumes
same,"ipsilateral hippocampal volume, TBI mice vs vehicle-treated","[5]; TBI, p = 0.0835","reduced hippocampal volumes, that did not reach statistical significance"
same,contralateral dentate gyrus volume,[5]; sham and TBI mice,did not affect contralateral DG volume
same,contralateral hippocampus volume,[5]; sham or TBI brains,did not affect the contralateral hippocampus volume
same,ipsilateral dentate gyrus volume,[5]; sham or TBI groups,no effect of drug treatment
same,ipsilateral cortical volume,[5]; sham or injured animals,did not influence ipsilateral cortical volumes
same,"ipsilateral hippocampal volume, sham mice vs vehicle-treated sham","[5]; sham, p = 0.0669",tended to exhibit larger hippocampal volumes
same,functional and neuropathological outcomes after severe TBI in adult mice,[6],treatment-dependent improvement in functional and neuropathological outcomes
same,Ki,[7],6 ± 3 nM
same,injury-induced reduction in social investigation (resident-intruder),[8],independent of treatment with p-OH SB-3CT
